Laboratory results reported in patent publication US9284297B2, “Halofuginone analogs for inhibition of tRNA synthetases and uses thereof” (President and Fellows of Harvard College, priority 2008, dated 2016).

What was measured:
[1] = test system: Human primary dermal fibroblasts; test: Inhibition of cell spreading in a fibroblast model; type: cell-based; design: key: “+++” vs. “++” vs. “+” in general denotes ˜4-fold differences in potency; “+++” vs. “++” vs. “+” in general denotes ˜4-fold differences in potency; “+++” vs. “++” vs. “+” in general denotes ˜4-fold differences in potency; “−” denotes no activity at any dose tested, up to 1000× the effective dose of halofuginone; details: spreading of cells assessed by light microscopy 28 hours after treatment
Protocol: The ability of halofuginone and analogs thereof to inhibit the spreading of freshly plated primary dermal fibroblasts was examined. Human primary dermal fibroblasts were replated and halofuginone added immediately after replating; spreading of cells was assessed by light microscopy 28 hours after treatment with compound. “+++” vs. “++” vs. “+” in general denotes ˜4-fold differences in potency. “−” denotes no activity at any dose tested, up to 1000× the effective dose of halofuginone.

passive EAE = test: Passive EAE, transfer of PLP-reactive T cells; type: in vivo, mice; details: 2 μg HF daily i.p.
Description: The ability of systemic HF treatment to block IL-17 expression and associated autoimmune inflammation in vivo was examined using two distinct models of experimental autoimmune encephalomyelitis (EAE). […] The second model, a passive model of EAE induction, is initiated by the transfer of myelin proteolipid protein (PLP)-reactive T cells into lymphopenic hosts.
Passive EAE was induced by intravenous transfer of purified CD3^+ splenic T cells isolated from PLP TCR transgenic B10.S mice into syngeneic RAG2-deficient mice (3×10^6 cells/mouse) (Waldner et al., J. Clin. Invest. 113(7):990-997, 2004).
Mice were injected daily with HF (2 μg/mouse) or vehicle control (DMSO) i.p. Clinical signs of EAE were assessed according to the following score: 0, no signs of disease; 1, flaccid tail; 2, weak gait/hind limb paresis; 3, hind limb paralysis; 4, tetraplegia; 5, moribund. Cytokine production during EAE was determined either in peripheral T cells isolated from spleen or lymph nodes of mice prior to disease onset (day 6-10) or in mononuclear cells isolated from the brain and spinal cords of mice with severe disease (clinical score ≧2) between days 15-20. Briefly, splenocytes were stained for intracellular cytokines following erythrocyte lysis with ammonium chloride buffer. T cells were isolated from brain and spinal cords of mice with active EAE following perfusion with cold PBS. […]

[2] = test system: CD4+ CD25− T cells (Th1, Th2, iTreg differentiation, proliferation, CD25), CD8+ T cells, B cells; test: T and B cell activation, proliferation and Th1, Th2, iTreg differentiation; type: cell-based, murine
Protocol: Cytokines secreted into media supernatant were measured using the mouse Th1/Th2 cytometric bead array (CBA—BD Pharmingen) in accordance with manufacturers instructions.

STAT3 phosphorylation = test: Kinetics of STAT3 phosphorylation in developing Th17 cells; type: cell-based, murine; details: TGFβ plus IL-6; 5 nM or 10 nM HF
Protocol: FIG. 6. […] FIG. 6A is a set of representative histograms displaying the kinetics of STAT3 phosphorylation in developing Th17 cells treated with or without halofuginone. Resting naïve T cells (grey, shaded peak), T cells activated in the presence of TGFβ plus IL-6 (TGFβ/IL-6) treated with 10 nM MAZ1310 (light gray trace), 5 nM HF (medium gray trace), or 10 nM HF (dark gray trace). T cells were fixed at the indicated times and intracellular phospho-STAT3 staining was performed.
Th17 differentiation is synergistically regulated by TGFβ and the pro-inflammatory cytokines IL-6 and IL-21. […] Since STAT3 is the major transducer of IL-6 and IL-21 signaling, the kinetics of STAT3 phosphorylation in HF-treated T cells were examined.

[3] = test system: eIF2α phosphorylation and ATF4 protein levels in CD4+ CD25− T cells; test: Amino acid response (AAR) pathway activation in T cells, western blot; type: cell-based, mice
Protocol: CD4+ CD25− T cells purified from wild type of GCN2−/− mice were activated through TCR for 4 hours in the presence of halofuginone (10 nM) or 9 (MAZ1310, 10 nM). Whole cell lysates were analyzed by SDS PAGE/Western blot and antibodies indicated.
Naïve T-cells were treated to stimulate the T-cell receptor (TCR) in the presence or absence of 10 nM halofuginone in the presence of 1 mM added amino acid, and then assayed for eIF2alpha activity phosphorylation by SDS PAGE/Western blot.
HF induced detectable eIF2α phosphorylation at 2.5 nM, and this effect plateaued at 5-10 nM HF (FIG. 7D). […] AAR activation was a general consequence of HF treatment; HF induced eIF2α phosphorylation, not only in T cells activated in Th17-priming conditions, but also in resting naïve T cells and T cells activated in ThN, Th1, Th2, and iTreg polarizing conditions (FIG. 7F). […] Thus, the rapid activation of the AAR pathway by HF could underlie both its selective inhibition of Th17 differentiation and its effects on fibroblasts (Pines and Nagler, Gen. Pharmacol. 30:445, 1998).
To delineate the stress response pathway activated by HF, the effects of amino acid starvation with those of tunicamycin (an inducer of ER stress) or HF treatment during T cell activation were compared.
Whole cell lysates were generated from T cells activated for the indicated times. For STAT3 and Smad2/3 western blots cells were harvested, washed in PBS and lysed in 50 mM Tris, pH 7.4, 0.1% SDS, 1% Triton-X100, 140 mM NaCl, 1 mM EDTA, 1 mM EGTA supplemented with protease inhibitors tablets (Roche, Germany), 1 mM NaF and 1 mM Na3VO4. For eIF2α and ATF4 western blots, cells were harvested as above and lysed in 50 mM Tris, pH 7.4, 2% SDS, 20% glycerol and 2 mM EDTA supplemented with protease and phosphatase inhibitors as above. All lysates were cleared via centrifugation and 15-30 μg of protein was resolved by SDS-PAGE. Protein was transferred to nitrocellulose membranes, blocked and blotted using specific antibodies. Antibodies used for western blot analysis were anti-phospho-Smad2, anti-STAT3 (pY705), anti-STAT3, anti-eIF2α^pS51, anti-eIF2α (all from Cell Signaling Technology, Danvers, Mass.). Anti-ATF4/CREB2 and anti-β-actin were purchased from Santa Cruz Biotechnology (Santa Cruz, Calif.). HRP-conjugated secondary antibodies were all purchased from Sigma, with the exception of HRP-conjugated anti-armenian hamster antibody (Jackson Immunoresearch, West Grove, Pa.).

O=C(CC1NCCCC1O)Cn1cnc2cc(Br)c(Cl)cc2c1=O (stereo not shown) [Compound 1, 7-bromo-6-chloro-3-[3-(3-hydroxy-2-piperidinyl)-2-oxopropyl]-4(3H)-quinazolinone]
Fibroblast inhibition [1]: +++ | EAE disease symptoms, passive model (passive EAE): developed disease symptoms with kinetics and severity similar to control treated animals | concentration inducing general inhibition of T and B cell activation, proliferation, and effector function [2]: > 20 nM | effect on T cell proliferation, CD25 upregulation, IL-2, TNF, IFNγ production ([2]; 1-10 nM): did not affect T cell proliferation, CD25 upregulation, or production of IL-2, TNF, or IFNγ | effect on Th1, Th2, iTreg differentiation ([2]; polarizing cytokine conditions, IFNγ, IL-4, Foxp3 expression): failed to modulate Th1, Th2 or iTreg differentiation | STAT3 phosphorylation (STAT3 phosphorylation): decreased the maintenance of STAT3 phosphorylation, beginning around 12 hours post activation | time to maximum eIF2α phosphorylation ([3]; 10 nM HF): ≤ 2 h | rescue of eIF2alpha phosphorylation by added amino acid ([3]; 10 nM halofuginone, 1 mM added amino acid): blocked by added proline | phosphorylation of Ser51 of eIF2alpha, GCN2 dependence ([3]; 10 nM, 4 hours, T cells from wild type or GCN2−/− mice): leads to phosphorylation of Ser51 of eif2alpha only in wild type cells and not in GCN2−/− cells | concentration at which eIF2α phosphorylation plateaued ([3]; 4 hours-post TCR activation): 5 to 10 nM | concentration inducing detectable eIF2α phosphorylation ([3]; 4 hours-post TCR activation): 2.5 nM | concentration with highest ATF4 expression levels ([3]; 4 hours-post TCR activation): 5 to 10 nM | stress response pathway: eIF2α phosphorylation, ATF4 expression, Xbp-1 splicing ([3]; 4 hours, 10 nM HF or 1 μg/ml tunicamycin): inducing eIF2α phosphorylation without promoting Xbp-1 splicing
